# Molecular target: C_A84I-SQR (SDHC_A84I), IPO323_Flu21 mitochondria (Zymoseptoria tritici, UniProt F9X9V6+F9XH52+O42772, A84I)
# Test: Succinate-quinone (SQR) SDHI sensitivity assay on purified mitochondria, IPO323_Flu21
# Format: biochemical
# Conditions: mitochondria of UV mutant IPO323_Flu21; mean of three ± SD
# Description: Succinate-ubiquinone oxidoreductase (SQR) inhibition assays were performed on mitochondrial extracts from a panel of strains that were (i) either carrying a unique C-subunit encoding gene (ZtSDHC1, ZtSDHC1_A84I or Zt-SDHC3), or (ii) carrying two C-subunit encoding genes ZtSDHC1 and ZtSDHC3 (Table 1).
# Biomass production, mitochondrial extraction and purification were performed as described in [14]. Succinate: ubiquinone/DCPIP sensitivity tests were performed as described in [14] with minor modification. The different mitochondrial suspensions were adjusted to similar initial velocity (1 OD595nm hour^-1) and inhibitor concentrations ranged between 0.047nM and 50μM with uniform 4x dilution steps (11 concentrations + DMSO control). Calculated absorbance slopes (OD/min) were used for IC50 calculations using GraphPad Prism 6.07 software non-linear curve fitting against log inhibitor concentrations.
row,Structure (SMILES),IC50 [µM]
1,O=C(Nc1ccccc1-c1ccc(Cl)cc1)c1cccnc1Cl [Boscalid],0.062 ± 0.0192
2,CC1=C(C(=O)Nc2ccccc2)SCCO1 [Carboxin],1.15 ± 0.153
3,Cn1cc(C(=O)NCCc2ccc(Cl)cc2Cl)c(C(F)F)n1 [Compound 1],2.57 ± 0.239
4,C[C@@H](Cc1ccc(Cl)cc1Cl)NC(=O)c1cn(C)nc1C(F)F [Compound 2],0.78 ± 0.157
5,CON(C(=O)c1cn(C)nc1C(F)F)[C@@H](C)Cc1ccc(Cl)cc1Cl [Compound 3],0.028 ± 0.0073
6,O=C(NCCc1ncc(C(F)(F)F)cc1Cl)c1ccccc1C(F)(F)F [Fluopyram],1.44 ± 0.354
7,Cc1cc(OC(C)C)ccc1C(=O)C(C)(C)NC(=O)c1sccc1C [Isofetamid],21.4 ± 4.55
8,CC(C)CC(C)c1sccc1NC(=O)c1cn(C)nc1C(F)(F)F (stereo not drawn) [Penthiopyrad],0.0046 ± 0.0017
9,CON(C(=O)c1cn(C)nc1C(F)F)[C@@H](C)Cc1c(Cl)cc(Cl)cc1Cl [Pydiflumetofen],0.002 ± 0.0004

# Source: publication PMC6941823, “A dispensable paralog of succinate dehydrogenase subunit C mediates standing resistance towards a subclass of SDHI fungicides in Zymoseptoria tritici” (PLoS Pathogens, 2019)
